Measurements from PMC8518537, “N‐(Anilinoethyl)amide Melatonergic Ligands with Improved Water Solubility and Metabolic Stability” (Chemmedchem, 2021).
Converted amounts (≈) assume the structure as drawn. Where two headings read alike, the source gives them in different places.

How the values were obtained:
human MT1 receptors [1] = target: T1, human MT1 receptors (Homo sapiens, UniProt P48039); assay: Radioligand binding, 2-[125I]iodomelatonin competition at MT1; details: cloned human MT1 in CHO cells; from IC50 by Cheng-Prusoff; mean±SD of three determinations; read-out: MT1 K i
T1 sequence (P48039 whole entry): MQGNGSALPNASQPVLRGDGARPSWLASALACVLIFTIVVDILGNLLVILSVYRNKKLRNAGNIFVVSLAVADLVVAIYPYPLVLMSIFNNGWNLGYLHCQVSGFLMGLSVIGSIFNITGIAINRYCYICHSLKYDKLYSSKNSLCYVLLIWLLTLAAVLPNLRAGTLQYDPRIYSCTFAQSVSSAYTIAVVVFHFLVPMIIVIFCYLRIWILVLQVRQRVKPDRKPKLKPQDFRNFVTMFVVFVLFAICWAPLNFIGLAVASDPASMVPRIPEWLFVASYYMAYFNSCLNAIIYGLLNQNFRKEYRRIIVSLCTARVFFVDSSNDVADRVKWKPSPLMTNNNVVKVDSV
Method: (§3) After incubation, the % of radioligand binding inhibition was determined via a scintillation counting method. The radioligand binding experiments were performed in triplicate. IC50 values were determined by nonlinear regression analysis of the competition curves using Hill equation curve fitting. The pK i values were calculated from the IC50 values in accordance with the Cheng‐Prusoff equation.[28]

human MT2 receptors [2] = target: T2, human MT2 receptors (Homo sapiens, UniProt P49286); assay: Radioligand binding, 2-[125I]iodomelatonin competition at MT2; details: cloned human MT2 in CHO cells; from IC50 by Cheng-Prusoff; mean±SD of three determinations; read-out: MT2 K i
T2 sequence (P49286 1-362): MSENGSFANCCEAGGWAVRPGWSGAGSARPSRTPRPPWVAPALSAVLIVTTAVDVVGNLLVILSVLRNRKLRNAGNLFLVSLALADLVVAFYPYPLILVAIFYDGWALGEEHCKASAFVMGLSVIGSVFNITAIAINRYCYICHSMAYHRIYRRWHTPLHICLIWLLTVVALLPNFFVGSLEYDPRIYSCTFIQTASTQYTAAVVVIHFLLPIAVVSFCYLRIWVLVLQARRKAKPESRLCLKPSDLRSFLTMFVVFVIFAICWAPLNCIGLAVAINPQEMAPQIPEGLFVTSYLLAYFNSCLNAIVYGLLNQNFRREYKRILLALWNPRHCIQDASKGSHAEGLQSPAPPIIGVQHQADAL
Method: as §3

[3] = Thermodynamic solubility, shake flask method; assay type: physicochemical; details: thermodynamic from solid, room temperature overnight, mean±SD, triplicate
Method: Thermodynamic solubility values were measured in two different buffers (pH 1.0; pH 7.4) by the shake flask method.[65] 1 mg of each compound was placed in 1 mL of appropriate buffer and shaken at room temperature overnight. The resulting suspension was centrifuged (10 min, 10000 g, 20 °C) and the supernatant analyzed by HPLC‐UV. Solubility values were interpolated from calibration curves prepared from concentrated DMSO stock solutions of each compound. Reported solubility values are the mean of three measurements±standard deviation.
It consisted of a LC‐10ADvp solvent delivery module, a 20 μL Rheodyne sample injector (Rheodyne LLC, Rohnert Park, CA, USA) and a SPD‐10Avp UV‐VIS detector. PeakSimple 2.83 software was employed for data acquisition and HPLC peak integration. […] Elution conditions were optimized for each compound at a flow rate of 1 mL min^−1 employing mobile phases consisting of water and acetonitrile at different percentages, while UV detection was set at λ = 254 nm.

[4] = Metabolic stability in rat liver microsomes; assay type: in vitro ADME; details: for CLi Rat LM (intrinsic clearance) / half-life at 5 μM: rat liver microsomes 1 mg protein/mL, 5 μM compound, mean±SD; for CLi Rat LM (intrinsic clearance): 37 °C; for half-life at 5 μM: NADPH-regenerating system, pH 7.4, 37 °C, read-out: t 1/2 Rat LM
Method: (§4) Each compound (final concentration: 5 μM) was incubated in the presence of rat or human liver microsomes (final concentration: 1 mg protein/mL) and of a NADPH‐regenerating system (final concentrations: 2 mM NADP^+, 10 mM glucose‐6‐phosphate, 0.4 U mL^−1 glucose‐6‐phosphate dehydrogenase, 5 mM MgCl2) in a 10 mM Phosphate Buffered Saline (PBS) solution, pH 7.4, at 37 °C. Compound was added after a 10 min pre‐incubation at 37 °C and. at stated time points, depending on compound kinetics, sample aliquots were withdrawn, metabolic reaction was quenched by acetonitrile addition (1 : 2), and after a centrifugation step (9000 g, 10 min, 4 °C) the supernatant was analyzed by HPLC‐UV‐VIS.
(§5) Apparent half‐lives (t1/2 in min) for the metabolic clearance of compounds were calculated from the pseudo first‐order rate constants (k) obtained by linear regression of the log chromatographic peak area versus time plots and are reported as means of three experiments±standard deviation. Intrinsic clearance (CLi) values of the compounds were calculated using the following equation: CLi (μL×min^−1×mg protein^−1)=k×V where V (μL×mg protein^−1)=incubation volume/mg protein added.
(§6) Pooled rat and human liver microsomes (20 mg/mL) were supplied by BD Biosciences (BD Biosciences, Woburn, MA, USA). Acetonitrile and methanol were HPLC grade and were supplied by Sigma‐Aldrich (Sigma‐Aldrich srl, Milan, Italy). Water was freshly bidistilled before use. All other reagents were purchased in the highest purity available.
(§7) PeakSimple 2.83 software was employed for data acquisition and HPLC peak integration. HPLC columns were a RP‐C18 Supelco Discovery (Supelco, Bellefonte, PA, USA), 5 μm, 150×4.6 mm i.d. for all compounds except 13, and a Phenomenex Gemini, 5 μm, 150×4.6 mm i.d. for compound 13 (Phenomenex). Elution conditions were optimized for each compound at a flow rate of 1 mL min^−1 employing mobile phases consisting of water and acetonitrile at different percentages, while UV detection was set at λ = 254 nm. For compound 13, the mobile phase consisted of a 10 mM ammonium acetate buffer pH 7.0 and methanol and the UV detection was set at λ = 281 nm.

[5] = Metabolic stability in human liver microsomes; assay type: in vitro ADME; details: for CLi Human LM (intrinsic clearance) / half-life at 5 μM: human liver microsomes 1 mg protein/mL, 5 μM compound, mean±SD; for CLi Human LM (intrinsic clearance): 37 °C; for half-life at 5 μM: NADPH-regenerating system, pH 7.4, 37 °C, read-out: t 1/2 Human LM
Method: as §4, §5, §6, §7

[6] = Experimental lipophilicity, shake-flask n-octanol/water; assay type: physicochemical; details: n-octanol/50 mM MOPS buffer pH 7.4, 25±1 °C, mean±SD of three, read-out: Log D oct,7.4
Method: Chosen buffer was 50 mM zwitterionic MOPS (3‐morpholinopropanesulfonic acid), pH 7.4 to avoid ionic couple partitioning, with ionic strength adjusted to 0.15 M by KCl addition. Compounds, after partitioning overnight, and dilution of both phases with methanol, were dosed in the HPLC‐UV system, as detailed below. Reported log D oct,7.4 values are the mean of three measurements±standard deviation.
HPLC columns were a RP‐C18 Supelco Discovery (Supelco, Bellefonte, PA, USA), 5 μm, 150×4.6 mm i.d. for all compounds except 13, and a Phenomenex Gemini, 5 μm, 150×4.6 mm i.d. for compound 13 (Phenomenex). Elution conditions were optimized for each compound at a flow rate of 1 mL min^−1 employing mobile phases consisting of water and acetonitrile at different percentages, while UV detection was set at λ = 254 nm. For compound 13, the mobile phase consisted of a 10 mM ammonium acetate buffer pH 7.0 and methanol and the UV detection was set at λ = 281 nm.

human MT1 receptors [7] = target: T1, human MT1 receptors; assay: Agonist activity at MT1, cell impedance assay (cellular dielectric spectroscopy); assay type: cell-based; details: for EC50: cell impedance assay, CHO cells expressing human MT1, mean±SD, triplicate; for Emax: read-out: MT1 E max
Method: (§1) The in vitro pharmacology experiments were conducted at Cerep (Celle‐Lévescault, France) following radioligand binding and cellular functional assays developed elsewhere.[60, 61, 62]
(§2) To define the functional activity of the new compounds, cellular functional assays were performed on CHO cells stably expressing human MT1 or MT2 receptors. Agonist activity at MT1 receptors was evaluated using a cell impedance assay measured by cellular dielectric spectroscopy,[62] and at MT2 receptors with an cAMP assay, measured by a fluorometric method.[61] The EC50 values were determined by non‐linear regression analysis of the concentration‐response curves. Experiments were performed in triplicate.

human MT2 receptors [8] = target: T2, human MT2 receptors; assay: Agonist activity at MT2, cAMP assay; assay type: cell-based; details: for EC50: cAMP assay, CHO cells expressing human MT2, mean±SD, triplicate; for functional profile (intrinsic activity): cAMP functional assay at MT2 (with MT1 cell impedance data of Table 3); for Emax: read-out: MT2 E max
Method: as §1, §2

[9] = In vivo pharmacokinetic study in rat plasma; design: species or system Sprague‐Dawley rats; details: for Vd / bioavailability / AUC / Cmax / clearance / half-life: male; for Vd / bioavailability: plasma; for Vd / bioavailability / F (oral bioavailability): rat; for Vd: read-out: V ss; for bioavailability / F (oral bioavailability): PO 40 mg kg^−1 vs IV 5 mg kg^−1; for bioavailability: read-out: F (oral bioavailability); for AUC / Cmax / clearance / half-life: rat plasma
Method: To evaluate the in vivo behavior of the two melatonergic ligands 14 and 19, a preliminary pharmacokinetic (PK) study was carried out in male Sprague‐Dawley rats. The compounds were administered as intravenous bolus (IV) or by oral gavage (PO) at doses of 5 or 40 mg kg^−1, respectively. Quantitative analysis was carried out by UPLC/MS/MS and the plasma concentration profiles are shown in Figure 3, while the main PK parameters are listed in Table 4.
The in vivo pharmacokinetic experiments were conducted at NiKem Research (Baranzate – Milan – Italy). PK studies were performed using Sprague‐Dawley CD (albino) male rats (7–9 weeks‐old, weight 160–200 grams, Charles River Lab. Italia, Calco). Animals were housed under standard conditions and had free access to water and standard laboratory rodent diet. Care and husbandry of animals were in conformity with the institutional guidelines, in compliance with national and international laws and policies (EEC Council Directive 86/609, OJL 358 m, 1, Dec. 122, 1987; NIH Guide for the care and Use of Laboratory Animals, NIH Publication No. 86–23, 1985). The compounds were dissolved in water containing 3 % DMSO and 20 % Encapsin (and a stechiometric amount of HCl for 14) at a concentration of 2.5 mg mL^−1 for the IV (bolus) dose, or in water containing 5 % DMSO and 10 % encapsin (and a stechiometric amount of HCl for 14) at a concentration of 4 mg mL^−1 for PO (gavage) dose. Rats were randomly assigned to four treatment groups (n=3) and received a single IV bolus dose (5 mg kg^−1) or a single oral administration (40 mg kg^−1) through oral gavage of compound 14 or 19. Serial blood samples ([…]) were collected from caudal vein at 5, 30, 60, 120, 480 and 1440 min after IV injection, or at 15, 30, 60, 120, 480 and 1440 min after PO administration. Blood samples were collected in heparinized eppendorfs (Heparin Vister 5000 U.I./mL_Marvecs Pharma), gently mixed and placed on ice; then blood was centrifuged (3500×g, at 4 °C for 15 min), the plasma was collected and immediately frozen at −80 °C until submission to UPLC/MS/MS analysis. For the sample preparation, 100 μL of plasma spiked with 5 μL of internal standard (I.S.; 19 for compound 14 and 14 for compound 19; 2.5 μg mL^−1;) were added to a SW96 deep well plate (Waters) containing 300 μL of acetonitrile. The plate was shaken for 10 min and then centrifuged at 3000 rpm for 15 min. UPLC/MS/MS analyses were performed on an Acquity UPLC, coupled with a sample organizer and interfaced with a triple quadrupole Premiere XE (Waters, Milford, USA). LC runs (inj. vol. 5 μL) were carried out at 50 °C on Acquity BEH C18 columns (1.7 μm, 2.1×50 mm) at a flow rate of 0.45 mL min^−1. Mobile phases consisted of a phase A (water) and a phase B (0.1 % formic acid in acetonitrile). The column was conditioned with 2 % phase B for 0.2 min, then brought to 100 % phase B within 0.6 min and maintained at these conditions for 1.1 min. Analyses were carried out using a positive electrospray ionization [ESI(+)] interface in multiple reaction monitoring (MRM) mode. Capillary 3.5 Kv; extractor 3 V; source T 140 °C, desolvation T 450 °C. Transitions: for compound 14 Q1/Q3 315.2/86, CV 14, CE16+315.2/238 CV 14, CE19; for I.S. (compound 19): 301.1/86 CV 14 CE16; LLOQ: 1 ng ml^−1. Transitions: for compound 19 Q1/Q3: 301.1/86CV 14 CE16; for I.S. (compound 14) 315.2/238CV 14, CE19; LLOQ: 1 ng mL^−1. Pharmacokinetic analysis was performed by non‐compartmental analysis (NCA) using the WinNonlin 5.1 software (Pharsight, Mountain View, CA, USA. Absolute oral bioavailability (F) was calculated by linear trapezoidal rule using the relationship: F=[doseIV×AUCoral o‐∞/doseoral×AUCIV o‐∞]×100.

[10] = buffer pH 1.0, simulated gastric fluid, pH 1.0 buffer, read-out: Solubility pH 1.0
[11] = buffer pH 7.4, aqueous buffer, pH 7.4 buffer, read-out: Solubility pH 7.4
[12] = Sprague-Dawley CD, IV bolus 5 mg kg^−1
[13] = Sprague-Dawley CD, PO gavage 40 mg kg^−1
[14] = Sprague-Dawley, IV bolus 5 mg kg^−1
[15] = Sprague-Dawley, PO gavage 40 mg kg^−1

COc1cccc(N(CCNC(C)=O)c2ccsc2)c1 [Compound 11, N ‐{2‐[(3‐Methoxyphenyl)(thiophen‐3‐yl)amino]ethyl}acetamide]
Ki (human MT1 receptors [1]): 0.7 ± 0.1 nM | Ki (human MT2 receptors [2]): 0.07 ± 0.02 nM | solubility [3, 10]: 162 ± 4.4 µg/mL (≈ 556 µM) | solubility [3, 11]: 92.5 ± 3.5 µg/mL (≈ 319 µM) | CLi Rat LM (intrinsic clearance) [4]: 175.4±22.3 μL min^−1 mg prot^−1 | half-life at 5 μM [4]: 4 ± 0.5 min | CLi Human LM (intrinsic clearance) [5]: 17.5±2.4 μL min^−1 mg prot^−1 | half-life at 5 μM [5]: 40.1 ± 5.3 min | logD ([6]; n-octanol/water (MOPS buffer)): 2.74 ± 0.01 | melting point: 76 to 77 °C

CCCNC(=O)NCCN(c1ccccc1)c1cccc(OC)c1 [Compound 6 c, 1‐{2‐[(3‐Methoxyphenyl)phenylamino]ethyl}‐3‐propylurea]
Ki (human MT1 receptors [1]): 57 ± 0.1 nM | Ki (human MT2 receptors [2]): 1.7 ± 0.08 nM | solubility [3, 10]: 17.7 ± 0.9 µg/mL (≈ 54.1 µM) | solubility [3, 11]: 14.3 ± 0.1 µg/mL (≈ 43.7 µM) | CLi Rat LM (intrinsic clearance) [4]: 218.4±21.2 μL min^−1 mg prot^−1 | half-life at 5 μM [4]: 3.2 ± 0.3 min | CLi Human LM (intrinsic clearance) [5]: 95.7±14.7 μL min^−1 mg prot^−1 | half-life at 5 μM [5]: 7.4 ± 1.2 min | logD ([6]; n-octanol/water (MOPS buffer)): 3.91 ± 0.02 | melting point: 63 to 65 °C

COc1ccc(Br)c(N(C)CCNC(C)=O)c1 [Compound 19, N ‐{2‐[(2‐Bromo‐5‐methoxyphenyl)methylamino]ethyl}acetamide]
Ki (human MT1 receptors [1]): 18 ± 0.7 nM | Ki (human MT2 receptors [2]): 2.4 ± 0.1 nM | solubility [3, 10]: > 1000 µg/mL | solubility [3, 11]: 823 ± 34.7 µg/mL (≈ 2730 µM) | CLi Rat LM (intrinsic clearance) [4]: 39.6±3.1 μL min^−1 mg prot^−1 | half-life at 5 μM [4]: 17.6 ± 1.5 min | CLi Human LM (intrinsic clearance) [5]: 8.9±1.4 μL min^−1 mg prot^−1 | half-life at 5 μM [5]: 78.5 ± 12.2 min | logD ([6]; n-octanol/water (50 mM MOPS buffer)): 1.85 ± 0.01 | EC50 (human MT1 receptors [7]): 4.4 ± 0.2 nM | Emax (human MT1 receptors [7]): 94 ± 4% | EC50 (human MT2 receptors [8]): 0.83 ± 0.05 nM | functional profile (intrinsic activity) (human MT2 receptors [8]): full agonist | Emax (human MT2 receptors [8]): 93 ± 2% | Vd [9, 12]: 0.7 ± 0.1 L/kg | bioavailability ([9]; Sprague-Dawley CD): 3.6% | AUC [9, 12]: 1100 ng·h/mL | Cmax [9, 12]: 2970 ± 384 ng/mL | clearance [9, 12]: 76.4 ± 8.8 mL/min/kg | half-life [9, 12]: 13.5 ± 0.3 min | AUC [9, 13]: 319 ng·h/mL | Cmax [9, 13]: 456 ± 178 ng/mL | half-life [9, 13]: 26.2 ± 0.9 min | F (oral bioavailability) [9]: moderate

COc1cccc(N(CCNC(C)=O)c2cccc(CO)c2)c1 [Compound 14, N ‐{2‐[(3‐Hydroxymethylphenyl)(3‐methoxyphenyl)amino]ethyl} acetamide]
Ki (human MT1 receptors [1]): > 100 nM | Ki (human MT2 receptors [2]): 3.5 ± 0.05 nM | solubility [3, 10]: > 1000 µg/mL | solubility [3, 11]: > 1000 µg/mL | CLi Rat LM (intrinsic clearance) [4]: 241.4±28.5 μL min^−1 mg prot^−1 | half-life at 5 μM [4]: 2.9 ± 0.3 min | increase of rat microsomal stability compared to UCM765 ([4]; rat liver microsomes, versus UCM765): approximately 1.5 fold | CLi Human LM (intrinsic clearance) [5]: 10.8±1.2 μL min^−1 mg prot^−1 | half-life at 5 μM [5]: 64.9 ± 6.9 min | increase of human microsomal stability compared to UCM765 ([5]; human liver microsomes, versus UCM765): approximately 1.5 fold | logD ([6]; n-octanol/water (MOPS buffer)): 2.04 ± 0.01 | EC50 (human MT1 receptors [7]): 53 ± 0.5 nM | Emax (human MT1 receptors [7]): 32 ± 3% | EC50 (human MT2 receptors [8]): 6.8 ± 0.3 nM | functional profile (intrinsic activity) (human MT2 receptors [8]): MT2‐selective partial agonist | Emax (human MT2 receptors [8]): 71 ± 2% | Vd [9, 14]: 0.9 ± 0.2 L/kg | bioavailability ([9]; Sprague-Dawley): 0.5% | AUC [9, 14]: 1110 ng·h/mL | Cmax [9, 14]: 2760 ± 479 ng/mL | clearance [9, 14]: 76.2 ± 10.3 mL/min/kg | half-life [9, 14]: 11.5 ± 1 min | AUC [9, 15]: 43.8 ng·h/mL | Cmax [9, 15]: 75.6 ± 39.7 ng/mL | half-life [9, 15]: 19.8 ± 1.9 min | F (oral bioavailability) [9]: very low
